Assay results as given in patent US20030073850A1, “4-Imidazole derivatives of benzyl and restricted benzyl sulfonamides, sulfamides, ureas, carbamates, and amides and their use” (priority 1998, published 2003).

Tests used:
anesthetized dogs [1] = assay: Urethral pressure profile in anesthetized dogs; type: in vivo, dog; details: increasing iv doses, FIG. 1
Description: Dogs instrumented and anesthetized as decribed above were placed in left lateral recumbency and a dual pressure sensor catheter (SPC-771, Millar Instruments, Houston, Tex.) was inserted into the urethra and advanced into the bladder. The proximal pressure sensor was interfaced to a M12 computerized data acquisition system for the measurement of lower urinary tract pressures. At a resting intravesical pressure of approximately 5 cm of H2O, urethral pressure was measured from the sensor as the catheter was withdrawn using a modified syringe pump (Model 22, Harvard Apparatus, South Natick, Mass.) at its maximal rate of 0.83 mm/sec. Measurement from the proximal sensor allowed easy reinsertion as the distal 5 cm of the catheter remains in the urethra after the total profile has been obtained. Three resting urethral pressure profiles were obtained at 5 minute intervals before dosing, then a single profile was initiated 30 sec after each increasing iv dose during the time corresponding to the maximum arterial pressure effects of that dose. The increase in arterial pressure seen after each agonist dose was allowed to return to baseline before the next dose was given.

[2] = target: T1, α1d (rat receptor expressed in mouse fibroblasts) (Rattus norvegicus, UniProt P23944); assay: Radioligand binding, [3H]-prazosin, α1d
T1 construct: expressed in transfected cells; host or cells: mouse fibroblasts
T1 sequence (P23944 1-561): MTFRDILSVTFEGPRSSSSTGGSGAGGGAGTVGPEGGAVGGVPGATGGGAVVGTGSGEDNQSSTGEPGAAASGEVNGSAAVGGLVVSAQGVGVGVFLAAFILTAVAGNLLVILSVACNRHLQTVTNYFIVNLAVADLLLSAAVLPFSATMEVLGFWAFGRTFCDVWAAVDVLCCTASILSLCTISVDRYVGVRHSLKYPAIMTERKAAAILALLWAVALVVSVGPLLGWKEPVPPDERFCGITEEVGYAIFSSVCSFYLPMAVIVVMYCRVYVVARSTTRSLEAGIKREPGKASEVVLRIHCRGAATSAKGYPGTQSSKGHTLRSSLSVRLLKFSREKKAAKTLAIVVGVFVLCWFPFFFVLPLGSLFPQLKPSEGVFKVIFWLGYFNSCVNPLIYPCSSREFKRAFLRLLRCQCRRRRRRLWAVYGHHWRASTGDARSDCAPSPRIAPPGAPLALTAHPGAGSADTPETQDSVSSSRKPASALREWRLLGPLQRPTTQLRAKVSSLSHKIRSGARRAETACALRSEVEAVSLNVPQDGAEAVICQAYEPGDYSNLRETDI
Outline: (§1)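 [3H]-prazosin radioligand displacement; α1A from rat submaxillary gland tissue, α1b hamster and α1d rat receptors each expressed in mouse fibroblasts.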

[3] = target: T2, α1b (hamster receptor expressed in mouse fibroblasts) (Mesocricetus auratus, UniProt P18841); assay: Radioligand binding, [3H]-prazosin, α1b
T2 construct: expressed in transfected cells; host or cells: mouse fibroblasts
T2 sequence (P18841 1-515): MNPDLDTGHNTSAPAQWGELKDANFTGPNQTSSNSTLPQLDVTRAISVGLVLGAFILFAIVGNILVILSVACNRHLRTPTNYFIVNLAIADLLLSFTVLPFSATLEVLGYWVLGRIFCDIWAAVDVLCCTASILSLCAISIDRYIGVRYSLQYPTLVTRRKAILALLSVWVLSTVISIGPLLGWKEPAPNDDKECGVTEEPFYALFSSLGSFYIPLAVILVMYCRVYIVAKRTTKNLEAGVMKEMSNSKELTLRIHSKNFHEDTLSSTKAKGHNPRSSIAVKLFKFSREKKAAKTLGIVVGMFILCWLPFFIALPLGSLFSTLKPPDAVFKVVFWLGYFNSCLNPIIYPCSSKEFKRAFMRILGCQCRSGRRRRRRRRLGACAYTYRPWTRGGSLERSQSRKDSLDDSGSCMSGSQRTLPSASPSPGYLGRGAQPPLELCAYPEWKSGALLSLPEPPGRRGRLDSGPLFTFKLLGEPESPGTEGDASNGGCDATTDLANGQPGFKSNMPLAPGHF
Outline: as §1

α1B (rat spleen) = target: T3, α1B (rat spleen) (Rattus norvegicus, UniProt P15823); assay: Agonist tissue response, contraction of rat spleen; type: biochemical; details: read-out: Agonist Tissue Response (pD2) α1B (rat spleen) (converted)
T3 construct: α1B (rat spleen) and α1D (rat aorta) receptors; from tissue; host or cells: rat spleen
T3 sequence (P15823 1-515): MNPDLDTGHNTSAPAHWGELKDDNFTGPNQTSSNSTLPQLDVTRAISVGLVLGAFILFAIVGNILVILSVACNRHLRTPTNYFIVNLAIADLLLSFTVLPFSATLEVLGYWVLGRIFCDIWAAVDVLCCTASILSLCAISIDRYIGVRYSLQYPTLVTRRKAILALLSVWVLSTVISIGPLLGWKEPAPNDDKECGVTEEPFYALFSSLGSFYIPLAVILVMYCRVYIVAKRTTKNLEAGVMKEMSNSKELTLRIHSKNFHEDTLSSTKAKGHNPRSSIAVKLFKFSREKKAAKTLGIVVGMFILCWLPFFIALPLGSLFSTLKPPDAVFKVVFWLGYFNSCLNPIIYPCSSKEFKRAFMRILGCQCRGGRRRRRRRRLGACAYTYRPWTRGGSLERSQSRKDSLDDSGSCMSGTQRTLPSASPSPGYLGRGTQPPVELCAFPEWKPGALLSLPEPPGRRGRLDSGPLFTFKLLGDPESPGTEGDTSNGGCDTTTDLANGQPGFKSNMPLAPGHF

α1A (rabbit urethra) = target: T4, α1A (rabbit urethra) (Oryctolagus cuniculus, UniProt O02824); assay: Agonist tissue response, contraction of rabbit urethra; type: biochemical; details: values without asterisk, read-out: Agonist Tissue Response (pD2) α1A (rab ureth) (converted)
T4 construct: tested for α1A functional activity using rabbit urethra; from tissue; host or cells: rabbit urethra (female New Zealand white rabbits)
T4 sequence (O02824 1-466): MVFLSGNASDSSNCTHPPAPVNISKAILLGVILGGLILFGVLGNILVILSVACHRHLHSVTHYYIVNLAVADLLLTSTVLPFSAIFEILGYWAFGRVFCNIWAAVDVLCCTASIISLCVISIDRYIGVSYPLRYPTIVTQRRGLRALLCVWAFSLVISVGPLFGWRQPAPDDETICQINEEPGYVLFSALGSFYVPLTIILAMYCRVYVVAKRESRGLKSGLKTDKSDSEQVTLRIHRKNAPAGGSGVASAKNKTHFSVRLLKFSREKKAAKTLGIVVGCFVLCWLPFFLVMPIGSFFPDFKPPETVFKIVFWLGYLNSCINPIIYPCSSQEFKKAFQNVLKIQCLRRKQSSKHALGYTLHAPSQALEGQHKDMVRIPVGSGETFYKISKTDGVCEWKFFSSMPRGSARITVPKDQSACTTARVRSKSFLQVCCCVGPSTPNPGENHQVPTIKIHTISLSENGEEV
Description: Most of the compounds were tested for α1A functional activity using rabbit urethra as follows. Female New Zealand white rabbits (2.0-3.5 Kg) were sedated with CO2 and decapitated. […] Subsequent experimental conditions were as described above for the other tissues. Agonist concentration response curves were cumulative except for the vas deferens assay in which the transient response made such measurements impractical.

anesthetized dogs [4] = assay: Mean arterial pressure (MAP) in anesthetized dogs; type: in vivo, dog; details: iv dose causing a maximum increase in MAP of 20 mm Hg, anesthetized female Beagle dogs
Source text: (§2) Female Beagle dogs (Marshall Farms, North Rose, N.Y.) greater that 2 years of age and weighing between 12 and 15 kg were used in these studies. At least 2 weeks prior to any agonist dosing, dogs were instrumented for the chronic measurement of arterial blood pressure by implanting a telemetry transducer/transmitter (TA11PA-C40, Data Sciences International, St. Paul, Minn.) into a carotid artery.
(§3) On the test day, dogs fasted since the previous afternoon were pre-anesthetized with thiopental sodium 15 mg/kg i.v. (Pentothal™, Abbott) and intubated. Anesthesia was maintained by allowing the dog to spontaneously breathe a mixture of isoflurane (2.5 to 3 volume %) and oxygen delivered by a Narkomed Standard anesthesia system (North American Drager, Telford, Pa.). An Abbocath-T™ i.v. catheter (18-G, Abbott) was inserted into the cephalic vein for the administration of agonists. A telemetry receiver (RA1310, DataSciences) was placed under the head of each dog and was interfaced to a computerized data acquisition system (Modular Instruments Inc.(MI2), Malvern, Pa.) which allowed for the continuous calibrated recording of arterial blood pressure which was electronically filtered to determine its mean value (MAP).
(§4) From the resulting dose response curve, an ED5 value, for the dose causing a maximum increase in IUP of 5 mm Hg, could be estimated. An ED20 value for the dose causing a maximum increase in MAP of 20 mm Hg could also be estimated. A selectivity ratio of MAP ED20 vs. IUP ED, was calculated.

[5] = target: T5, α1A (rat submaxillary gland) (Rattus norvegicus, UniProt P43140); assay: Radioligand binding, [3H]-prazosin, α1A
T5 construct: α1A (rat submaxillary gland); from tissue; host or cells: rat submaxillary gland
T5 sequence (P43140 1-466): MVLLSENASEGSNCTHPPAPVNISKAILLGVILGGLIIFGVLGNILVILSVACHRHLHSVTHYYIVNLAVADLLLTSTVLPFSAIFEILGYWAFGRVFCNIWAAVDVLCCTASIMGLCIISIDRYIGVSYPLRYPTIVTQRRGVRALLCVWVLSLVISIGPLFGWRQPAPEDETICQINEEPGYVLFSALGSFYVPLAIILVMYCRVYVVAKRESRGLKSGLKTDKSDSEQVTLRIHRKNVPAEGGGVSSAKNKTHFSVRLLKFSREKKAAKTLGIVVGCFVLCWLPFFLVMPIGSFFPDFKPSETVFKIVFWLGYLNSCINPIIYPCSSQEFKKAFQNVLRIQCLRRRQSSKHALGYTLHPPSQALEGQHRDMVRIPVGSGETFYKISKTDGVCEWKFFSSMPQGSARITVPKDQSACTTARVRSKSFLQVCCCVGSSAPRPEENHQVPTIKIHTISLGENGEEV
Outline: as §1

anesthetized dogs [6] = assay: Intraurethral pressure (IUP) in anesthetized dogs; type: in vivo, dog
Source text: as §2, §3
Dogs with chronic telemetry implants anesthetized as described above were placed in dorsal recumbency and a balloon catheter was inserted into the urethral orifice and advanced approximately 15 cm until the tip was well inside the bladder. The balloon was then inflated with 1 ml of room air and the catheter slowly withdrawn until resistance (corresponding to the bladder neck) was evident. The balloon was then deflated and the catheter withdrawn additional 2 cm. The balloon was then reinflated and its catheter port connected to a Gould Statham P23Dd pressure transducer interfaced to a computerized data acquisition system (Modular Instruments, Inc., Malvern, Pa.) for the measurement of the intraurethral pressure. Increasing iv doses of test agonists were administered and the maximum effect of each dose on IUP was recorded. The effect of each dose was allowed to return to baseline before the next dose was given.
as §4

Compound	melting point [°C]	urethral pressure profile (anesthetized dogs [1])	Ki [2] [µM]	Ki [3] [µM]	EC50 (α1B (rat spleen)) [µM]	EC50 (α1A (rabbit urethra)) [µM]	Mean MAP ED20 (anesthetized dogs [4]) [nmol/kg]	Ki [5] [µM]	ED (5 mm Hg) (anesthetized dogs [6]; Canis lupus familiaris, iv dose causing a maximum increase in IUP of 5 mm Hg, anesthetized female Beagle dogs, read-out: Mean IUP ED5) [µmol/kg]	Mean Selectivity Ratio MAP ED20/IUP ED5 (anesthetized dogs [6]; anesthetized dogs, iv)
CS(=O)(=O)Nc1cccc2c1CCCC2c1c[nH]cn1.Cl (stereo not drawn) [Example 8, N-[5-(1H-imidazol-4-yl)-5,6,7,8-tetrahydro-1-naphthalenyl]methanesulfonamide, Hydrochloride]	113 to 114	corresponding increases in the urethral pressure								
CCS(=O)(=O)Nc1cccc(C(=C2CCCCC2)c2c[nH]cn2)c1 [Example 56]			0.00246	0.0161	186					
O=C(Nc1cccc2c1CCCC2c1c[nH]cn1)N1CCOCC1 (stereo not drawn) [Example 117, N-[5-(1H-imidazol-4-yl)-5,6,7,8-tetrahydro-1-naphthalenyl]-4-morpholinecarboxamide]			10	10		5.37	645	1.1	0.873	0.75
